{
  "source": "patent US10912767B2",
  "about": "“Anthracycline prodrugs and methods of making and using the same” (THE REGENTS OF THE UNIVERSITY OF COLORADO, priority 2015, dated 2021)",
  "key": {"[1]": {"test": "Photolysis timecourses, near UV blacklight 350 nm, HPLC", "format": "physicochemical", "excerpt": "(§1) In order to investigate the photolysis of the drugs in a system amenable to cell culture use, a custom UV irradiation apparatus was constructed, consisting of 3 small blacklight fluorescent bulbs (Southern New England Ultraviolet Co., λmax=350 nm) set between two ring stands and suspended at a height of 11.5 cm. The bulbs' housing was reflective aluminum so as to direct as much UV irradiation as possible downward toward the plate. Upon installation in sterile cell culture hood, the power of the system was measured at approximately 6-7 mW using a Scientech laser power meter. Prior to experimentation, the hood and irradiation apparatus was sterilized with 254 nm germicidal UV irradiation overnight. Using this setup, 100 μM of 4,5-dimethoxy-2-nitrobenyl alcohol (DMNA), photodoxazolidine R═H, and glucose-PEG-photodoxazoldine were irradiated in individual wells of a 24-well plate. Initially, 50 μL of a DMSO stock was diluted with 950 μL of PBS and aliquots of 50 μL were removed at various times (0-180 min), mixing by pipetting each time. The timepoints were analyzed by HPLC (method 2) and plotted as fractional conversion versus time. […] Therefore, a second experiment was performed in which the PBS was replaced with 1:1 acetonitrile:water. With this system of 5% DMSO/47.5% acetonitrile/47.5% water, no visible precipitation was produced over the course of the reaction.\nThe measured quantum yield of 0.002 for photodoxazolidine R═H (above) was lower than expected, which raised the possibility that the presence of the anthraquinone ring complex in the prodrugs was inhibiting photocleavage by quenching the activated state. To test whether this, the irradiation kinetics of DMNA (4, 5-dimethoxy-2-nitrobenzyl alcohol) was compared against photodoxazolidine R═H, which contains the DMNA unit as the photoactivating group. Additionally, glucose-PEG-photodoxazoldine was included for comparison; a synthetic precursor to this compound, azido-PEG-photodoxazolidine, is suspected of having a quantum yield of 0.01-0.02, which is 5-10-fold larger than photodoxazolidine. Irradiation was performed in 24-well cell culture dishes using the cell culture irradiation system described above with the soft-glass high-pass filter. […] In both cases, photodoxazolidine was the slowest to produce dox from the irradiation. In line with its quantum yield, glucose-PEG-photodoxazolidine reacted 4-5-fold faster than photodoxazolidine. However, DMNA was by far the fastest to undergo photochemistry in this system, converting to product approximately 30-fold faster than photodoxazolidine."}, "[2]": {"tested_on": "MDA-MB-231 breast cancer cells", "test": "Tumor cell growth inhibition, crystal violet (Example 2)", "format": "cell-based, human", "conditions": "for IC50: read-out: IC50", "excerpt": "as §1\n(§2) The ovarian carcinoma line NCl/ADR-RES (ADR) was grown in high-glucose Dulbecco's Modified Eagle Medium (DMEM) supplemented with 10% fetal bovine serum (FBS), 200 units/mL of penicillin and 200 μg/mL of streptomycin. The breast carcinoma line MDA-MB-231 was cultured in low-glucose DMEM with the same additives. Both lines were maintained in a humidified incubator with 5% CO2/95% air at 37° C. UV irradiations were performed with the apparatus described above.\n(§3) Growth inhibition experiments were performed by seeding cells into 96-well plates or 24-well plates at densities of 1000-1500 cells per well or 8000 cells per well, respectively, and allowing the cells to adhere overnight. The media was then replaced with a range of aqueous concentrations of the drug in question and allowed to incubate at 37° C. with the cells for a span of time (Inc1) which ranged from 1 min to 48 hours. Irradiation was performed at room temperature with the plate's lid removed and ranged from 1 to 30 min. In some experiments, the drug solution was removed following Inc1 and irradiated in clean media or PBS. Following irradiation, the cells were placed back into the 37° C. incubator for a second period of incubation (Inc2), which varied between 1 min and 24 h, prior to replacement with fresh media. Plates which received no irradiation but identical treatment otherwise were done in parallel. The cells were then grown until the no-drug control wells reached approximately 80% confluence or 5 days, whichever was shorter. […] The cells were fixed with 5% formalin in PBS, stained with crystal violet, washed with tap water, and air-dried. The stain was resolubilized in 50% isopropyl alcohol, 50% H2O containing 2% (w/v) SDS. The staining density was read on a multiwell plate reader at 588-600 nm. Percentage cell density was calculated relative to the irradiated no-drug control wells, plotted as a function of drug concentration, and fit using non-linear least squared analysis with a variable-slope dose response model in GraphPad Prism 5.0 software.\n(§4) Although the introduction of a long-pass glass filter between the light source and the plate alleviated this effect to a small extent, a maximum irradiation time of 10 min was settled upon. […] Since a media change at that point would remove the cells as well, the re-adherence of the cell population was accomplished by the addition of a large volume (200 μL) of complete media following Inc2, and overnight incubation. Then, a full media change was done to remove the drug. […]"}, "[3]": {"tested_on": "NCI/ADR-RES multi-drug resistant ovarian cancer cell line", "test": "Tumor cell growth inhibition, crystal violet (Example 2)", "format": "cell-based", "conditions": "for IC50: read-out: IC50", "excerpt": "as §1, §2, §3, §4"}},
  "note": "Where two headings read alike, the source gives them in different places.",
  "data": [
    {"smiles": "COc1cc(COC(=O)N2COC3C(C)OC(OC4CC(O)(C(=O)CO)Cc5c(O)c6c(c(O)c54)C(=O)c4c(OC)cccc4C6=O)CC32)c([N+](=O)[O-])cc1OC", "note": "(stereo not shown) [Photodoxazolidine]", "values": [
      {"measurement": "k in ACN: H2O, relative rate constant for photocleavage", "setting": "[1]; 100 μM, 1:1 acetonitrile:water, near UV 350 nm", "result": 0.0069, "unit": "min⁻¹"},
      {"measurement": "k in PBS, relative rate constant for photocleavage", "setting": "[1]; 100 μM, PBS, near UV 350 nm", "result": 0.0026, "unit": "min⁻¹"},
      {"measurement": "k in ACN: H2O, fold over photodoxazolidine", "setting": "[1]; 1:1 acetonitrile:water", "result": "(1.0)"},
      {"measurement": "k in PBS, fold over photodoxazolidine", "setting": "[1]; PBS", "result": "(1.0)"},
      {"measurement": "fold drop of IC50 on near UV irradiation", "setting": "[2]; MDA-MB-231, 10 min UV vs alone", "result": "approximately 22 fold"},
      {"measurement": "IC50", "setting": "[2]; MDA-MB-231, +UV 10 min, near UV 350 nm", "result": 0.073, "unit": "µM"},
      {"measurement": "IC50", "setting": "[2]; MDA-MB-231, prodrug alone, no UV, listed as Photodoxaz", "result": "1.6 ± 0.12", "unit": "µM"},
      {"measurement": "IC50", "setting": "[2]; MDA-MB-231, prodrug alone, no UV, listed as photodoxazolidine", "result": "~1.6", "unit": "µM"},
      {"measurement": "fold drop of IC50 on near UV irradiation", "setting": "[3]; 10 min UV vs alone", "result": "more than 30 fold"},
      {"measurement": "IC50", "setting": "[3]; +UV 10 min, near UV 350 nm", "result": 0.11, "unit": "µM"},
      {"measurement": "times more toxic than doxorubicin alone", "setting": "[3]; prodrug alone", "result": "2-3 times"},
      {"measurement": "IC50", "setting": "[3]; prodrug alone, no UV", "result": "3.5 ± 0.8", "unit": "µM"},
      {"measurement": "IC50", "setting": "[3]; prodrug alone", "result": "~3.5", "unit": "µM"}
    ]}
  ]
}
